{"source": "ChEMBL document CHEMBL1132960", "about": "“Consensus bioactive conformation of cyclic GnRH antagonists defined by NMR and molecular modeling” (J Med Chem, 2000)", "key": {"Rattus norvegicus [1]": {"organism": "Rattus norvegicus", "test": "Number of rats ovulating over total at a dose of 10 ug/rat (2/20)", "assay_type": "functional"}, "Rattus norvegicus [2]": {"organism": "Rattus norvegicus", "test": "Number of rats ovulating over total at a dose of 2.5 ug/rat (2/8)", "assay_type": "functional"}, "[3]": {"target": "T1, Gonadotropin-releasing hormone receptor (Homo sapiens, UniProt P30968)", "T1 sequence (P30968 whole entry)": "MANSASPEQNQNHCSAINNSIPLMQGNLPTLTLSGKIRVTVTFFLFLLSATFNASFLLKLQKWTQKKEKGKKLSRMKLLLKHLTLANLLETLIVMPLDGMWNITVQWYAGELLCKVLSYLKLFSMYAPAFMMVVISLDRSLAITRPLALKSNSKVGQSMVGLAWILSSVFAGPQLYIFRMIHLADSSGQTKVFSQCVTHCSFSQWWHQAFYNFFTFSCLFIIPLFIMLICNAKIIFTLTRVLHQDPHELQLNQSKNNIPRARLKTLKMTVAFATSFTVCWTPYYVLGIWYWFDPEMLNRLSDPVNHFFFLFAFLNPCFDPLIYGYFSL", "test": "Binding affinity towards Gonadotropin-releasing hormone receptor"}, "Rattus norvegicus [4]": {"organism": "Rattus norvegicus", "test": "Number of rats ovulating over total at a dose of 5 ug/rat (2/8)", "assay_type": "functional"}, "Rattus norvegicus [5]": {"organism": "Rattus norvegicus", "test": "Number of rats ovulating over total at a dose of 5 ug/rat (3/20)", "assay_type": "functional"}, "Rattus norvegicus [6]": {"organism": "Rattus norvegicus", "test": "Number of rats ovulating over total at a dose of 1000 ug/rat (5/8)", "assay_type": "functional"}}, "note": "Where a SMILES comes first, the peptide text is derived from it. Bridges are numbered along the chain shown (N, C = ends). [ ]: non-standard residue; d: D form. dPhe(4-Cl) = N[C@H](Cc1ccc(Cl)cc1)C(=O)O; d2Nal = N[C@H](Cc1ccc2ccccc2c1)C(=O)O; d3Pal = N[C@H](Cc1cccnc1)C(=O)O; NMeL = CN[C@@H](CC(C)C)C(=O)O; ΔPro = O=C(O)[C@@H]1C=CCN1; Dab = NCC[C@H](N)C(=O)O; Dap = NC[C@H](N)C(=O)O; βAla = NCCC(=O)O", "data": [{"molecule": "CC(=O)N1CC=C[C@H]1C(=O)N[C@H](Cc1ccc(F)cc1)C(=O)N[C@H](Cc1c[nH]c2ccccc12)C(=O)N[C@H]1CC(=O)NC[C@@H](C(N)=O)NC(=O)[C@@H]2CCCN2C(=O)[C@H](CCCN=C(N)N)NC(=O)[C@H](CC(C)C)NC(=O)[C@@H](Cc2ccc3ccccc3c2)NC(=O)[C@H](Cc2ccc(O)cc2)NC1=O", "values": [{"measurement": "No. of rats", "setting": "Rattus norvegicus [1]", "result": 2}]}, {"molecule": "CC(=O)N[C@H]1CCC(=O)NCC(=O)NCC[C@@H]2NC(=O)[C@H](CC(=O)NC[C@@H](C(N)=O)NC(=O)[C@@H]3CCCN3C(=O)[C@H](CCCN=C(N)N)NC(=O)[C@H](CC(C)C)NC(=O)[C@@H](Cc3ccc4ccccc4c3)NC2=O)NC(=O)[C@@H](Cc2c[nH]c3ccccc23)NC(=O)[C@@H](Cc2ccc(Cl)cc2)NC1=O", "values": [{"measurement": "No. of rats", "setting": "Rattus norvegicus [2]", "result": 2}]}, {"molecule": "CC(=O)N[C@H](Cc1ccc2ccccc2c1)C(=O)N[C@H](Cc1ccc(Cl)cc1)C(=O)N[C@H](Cc1cccnc1)C(=O)N[C@H]1CC(=O)NC[C@@H](C(N)=O)NC(=O)[C@@H]2CCCN2C(=O)[C@@H]2CCNC(=O)CNC(=O)CC[C@H](NC1=O)C(=O)N[C@H](CCCN=C(N)N)C(=O)N[C@@H](CC(C)C)C(=O)N2", "note": "(Ac-[d2Nal][dPhe(4-Cl)][d3Pal]DE[dR]L[Dab]P[Dap]-NH2; lactam 4-10; linker 5-8 via G) [listing 1 of 2 here]", "values": [{"measurement": "Ki", "setting": "[3]", "result": 0.14, "unit": "nM"}]}, {"molecule": "CC(=O)N[C@H](Cc1ccc2ccccc2c1)C(=O)N[C@H](Cc1ccc(Cl)cc1)C(=O)N[C@H](Cc1cccnc1)C(=O)N[C@H]1CC(=O)NC[C@@H](C(N)=O)NC(=O)[C@@H]2CCCN2C(=O)[C@@H]2CCNC(=O)CNC(=O)CC[C@H](NC1=O)C(=O)N[C@H](CCCN=C(N)N)C(=O)N[C@@H](CC(C)C)C(=O)N2", "note": "(Ac-[d2Nal][dPhe(4-Cl)][d3Pal]DE[dR]L[Dab]P[Dap]-NH2; lactam 4-10; linker 5-8 via G) [listing 2 of 2 here]", "values": [{"measurement": "No. of rats", "setting": "Rattus norvegicus [4]", "result": 2}]}, {"molecule": "CC(=O)N[C@H](Cc1ccc2ccccc2c1)C(=O)N[C@H](Cc1ccc(Cl)cc1)C(=O)N[C@H](Cc1c[nH]c2ccccc12)C(=O)N[C@H]1CC(=O)NC[C@@H](C(N)=O)NC(=O)[C@@H]2CCCN2C(=O)[C@@H]2CCCCNC(=O)CC[C@H](NC1=O)C(=O)N[C@H](CCCN=C(N)N)C(=O)N[C@@H](CC(C)C)C(=O)N2", "note": "(Ac-[d2Nal][dPhe(4-Cl)][dW]DE[dR]LKP[Dap]-NH2; lactam 4-10, 5-8) [listing 1 of 2 here]", "values": [{"measurement": "Ki", "setting": "[3]", "result": 0.32, "unit": "nM"}]}, {"molecule": "CC(=O)N[C@H](Cc1ccc2ccccc2c1)C(=O)N[C@H](Cc1ccc(Cl)cc1)C(=O)N[C@H](Cc1c[nH]c2ccccc12)C(=O)N[C@H]1CC(=O)NC[C@@H](C(N)=O)NC(=O)[C@@H]2CCCN2C(=O)[C@@H]2CCCCNC(=O)CC[C@H](NC1=O)C(=O)N[C@H](CCCN=C(N)N)C(=O)N[C@@H](CC(C)C)C(=O)N2", "note": "(Ac-[d2Nal][dPhe(4-Cl)][dW]DE[dR]LKP[Dap]-NH2; lactam 4-10, 5-8) [listing 2 of 2 here]", "values": [{"measurement": "No. of rats", "setting": "Rattus norvegicus [5]", "result": 3}]}, {"molecule": "CC(C)C[C@H]1C(=O)N[C@@H](CCCN=C(N)N)C(=O)N2CCC[C@H]2C(=O)NCCC(=O)N2CC=C[C@H]2C(=O)N[C@H](Cc2ccc(Cl)cc2)C(=O)N[C@H](Cc2c[nH]c3ccccc23)C(=O)N[C@@H](CO)C(=O)N[C@@H](Cc2ccc(O)cc2)C(=O)N[C@H](Cc2c[nH]c3ccccc23)C(=O)N1C", "note": "(cyclo([NMeL]RP[βAla][ΔPro][dPhe(4-Cl)][dW]SY[dW]))", "values": [{"measurement": "No. of rats", "setting": "Rattus norvegicus [6]", "result": 5}]}]}
